Source: patent US20120328518A1, “PROSTATE SPECIFIC MEMBRANE ANTIGEN INHIBITORS” (PIRAMAL IMAGING SA, priority 2009, published 2012)

What was measured:
PSMA (FOLH1) = biological target: T1, PSMA (FOLH1) (Homo sapiens, UniProt Q04609); test: In vitro inhibition of NAALADase activity in LNCaP membrane extracts; type: biochemical; conditions: crude membrane extracts from LNCaP cells; release of [3H]-Glutamate from [3H]NAAG, pH7.4, 30 min at 37° C.; read-out: IC50 with respect to NAALADase activity
T1 construct: protein extracted from the membrane fraction of LNCaP cells; host or cells: LNCaP cells (crude membrane extract)
Experimental: NAALADase activity was assayed essentially as described previously (Slusher B S, Tsai G, Yoo G, Coyle J T. Immunocytochemical localization of the N-acetyl-aspartyl-glutamate hydrolyzing enzyme N-acetylated alpha-linked acidic dipeptidase [NAALADase]. J Comp Neurol 1992; 315:217-229) in crude membrane extracts from LNCaP tissue culture cells (ref ATCC CRL-1740). Briefly, the release of [3H]-Glutamate from [3H] N-acetyl-aspartyl-glutamate (NAAG) in 50 mM Tris-Cl buffer pH7.4 after 30 min at 37° C. was measured using 1-5 μg/ml of protein extracted from the membrane fraction of LNCaP cells; substrate and product were resolved by cation-exchange liquid chromatography.

LNCaP xenografts [1] = test: PET/CT-imaging in LNCaP-tumor bearing mice; type: in vivo
LNCaP xenografts [2] = test: PET/CT-imaging in LNCaP-tumor bearing mice; type: in vivo; conditions: 50-70 min after injection of ~10 MBq
Experimental: Example F13 was imaged on a microPET/CT (Inveon, Siemens) in LNCaP tumor-bearing mice 50-70 min after injection of ˜10 MBq radiotracer Example F13.
Example F14 was imaged on a microPET/CT (Inveon, Siemens) in LNCaP tumor-bearing mice 50-70 min after injection of ˜10 MBq radiotracer Example F14.

[3] = Biodistribution in LNCaP bearing nude mice; type: in vivo
Experimental: Male nude mice were implanted subcutaneously with 10 million LNCaP tumor cells, which were freshly expanded in a sterilized solution phosphate-buffered saline (PBS, pH 7.4). 4 weeks after inoculation the mice were injected into the tail vein with 150 kBq of radiolabeled Example F13, diluted in PBS (total injected volume 100 μl). At 30, 60, 120, and 180 min intervals, the mice (in groups of 3) were sacrificed and the organs of interest were collected, rinsed of excess blood, weighed and counted in a gamma-counter.

[4] = Stability in human plasma in vitro (TLC); type: in vitro ADME
Experimental: Stability of Example F13 was investigated in human plasma in vitro. The Example was analyzed by TLC at different time points. […] After two hours, 82% of Example F13 was still intact.

[5] = Metabolic stability, mouse microsomes (TLC); type: in vitro ADME; conditions: TLC after different timepoints
Experimental: (§1) Metabolic stability of Example F13 was assessed by incubating F13 in the presence of mouse, rat, and human microsomes and rat hepatocytes. After different timepoints TLC analysis was performed. No metabolism by microsomes or hepatocytes was found.

[6] = Metabolic stability, rat microsomes (TLC); type: in vitro ADME; conditions: TLC after different timepoints
Experimental: as §1

[7] = Metabolic stability, human microsomes (TLC); type: in vitro ADME; conditions: TLC after different timepoints
Experimental: as §1

[8] = Metabolic stability, rat hepatocytes (TLC); type: in vitro ADME; conditions: TLC after different timepoints
Experimental: as §1

[9] = 110-130 min after injection of ~10 MBq
[10] = 0.5 h after injection of 150 kBq into tail vein
[11] = 1.0 h after injection of 150 kBq into tail vein
[12] = 2.0 h after injection of 150 kBq into tail vein
[13] = 3.0 h after injection of 150 kBq into tail vein

T1 sequence (Q04609 whole entry): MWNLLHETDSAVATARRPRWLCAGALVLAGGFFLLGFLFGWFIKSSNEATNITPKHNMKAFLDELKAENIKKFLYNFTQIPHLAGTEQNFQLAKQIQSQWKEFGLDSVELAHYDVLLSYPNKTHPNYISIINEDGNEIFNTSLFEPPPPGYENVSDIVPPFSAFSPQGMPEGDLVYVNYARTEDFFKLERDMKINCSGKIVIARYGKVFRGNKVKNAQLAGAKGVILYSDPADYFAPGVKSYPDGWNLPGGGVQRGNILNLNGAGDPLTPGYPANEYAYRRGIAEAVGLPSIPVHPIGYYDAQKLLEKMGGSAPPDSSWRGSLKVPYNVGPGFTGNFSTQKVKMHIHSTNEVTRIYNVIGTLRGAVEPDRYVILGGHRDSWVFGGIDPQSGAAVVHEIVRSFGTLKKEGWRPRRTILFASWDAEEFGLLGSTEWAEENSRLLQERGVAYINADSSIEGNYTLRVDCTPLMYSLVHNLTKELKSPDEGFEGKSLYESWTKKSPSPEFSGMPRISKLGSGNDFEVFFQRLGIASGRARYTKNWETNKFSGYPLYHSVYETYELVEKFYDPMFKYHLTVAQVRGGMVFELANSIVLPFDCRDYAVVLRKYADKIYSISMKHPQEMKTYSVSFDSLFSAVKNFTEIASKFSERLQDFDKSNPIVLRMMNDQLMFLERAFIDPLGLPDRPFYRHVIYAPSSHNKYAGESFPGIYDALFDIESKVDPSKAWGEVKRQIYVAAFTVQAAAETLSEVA

O=C(O)C(F)CC(CP(=O)(O)O)C(=O)O (racemic) [Example F3, rac-2-Fluoro-4-(phosphonomethyl)pentanedioic acid]
IC50 (PSMA (FOLH1)): 30 nM | blocking of tumor-contrast of radiotracer Example F15a (LNCaP xenografts [1]; 22 μg non-radioactive Example F3 with ~10 MBq Example F15a, 110-130 min): effectively blocked

O=C(O)C([18F])CC(CP(=O)(O)O)C(=O)O (racemic) [Example F15a, rac-2-[^18F]-Fluoro-4-(phosphonomethyl)pentanedioic acid]
background activity in PET/CT image (LNCaP xenografts [1]; [9]): very low background activity | kidney and bladder uptake in PET/CT image (LNCaP xenografts [1]; [9]): strong kidney and bladder uptake | renal clearance (LNCaP xenografts [1]; [9]): rapid renal clearance | tumor-contrast in PET/CT image (LNCaP xenografts [1]; [9]): High tumor-contrast

O=C(O)[C@H](C[C@@H](F)C(=O)O)CP(=O)(O)O [Example F8, (2R,4S)-2-Fluoro-4-(phosphonomethyl)pentanedioic acid]
IC50 (PSMA (FOLH1)): 14 nM

O=C(O)[C@H](C[C@H](F)C(=O)O)CP(=O)(O)O [Example F10, (2S,4S)-2-Fluoro-4-(phosphonomethyl)pentanedioic acid]
IC50 (PSMA (FOLH1)): 7 nM

O=C(O)[C@H](C[C@H]([18F])C(=O)O)CP(=O)(O)O [Example F13, (2S,4S)-2-[^18F]-Fluoro-4-(phosphonomethyl)pentanedioic acid]
background activity in PET/CT image (LNCaP xenografts [2]): very low background activity | kidney and bladder uptake in PET/CT image (LNCaP xenografts [2]): strong kidney and bladder uptake | renal clearance (LNCaP xenografts [2]): rapid renal clearance | tumor-contrast in PET/CT image (LNCaP xenografts [2]): High tumor-contrast | % Dosis/g adrenals [3, 10]: 3.31 % Dosis/g | % Dosis/g blood [3, 10]: 0.79 % Dosis/g | % Dosis/g bone [3, 10]: 2.61 % Dosis/g | % Dosis/g brain [3, 10]: 0.05 % Dosis/g | % Dosis/g fat [3, 10]: 0.78 % Dosis/g | % Dosis/g heart [3, 10]: 0.53 % Dosis/g | % Dosis/g intestine [3, 10]: 0.23 % Dosis/g | % Dosis/g kidney [3, 10]: 105.78 % Dosis/g | % Dosis/g liver [3, 10]: 0.40 % Dosis/g | % Dosis/g lung [3, 10]: 1.12 % Dosis/g | % Dosis/g muscle [3, 10]: 0.26 % Dosis/g | % Dosis/g pankreas [3, 10]: 0.45 % Dosis/g | % Dosis/g prostate [3, 10]: 0.69 % Dosis/g | % Dosis/g skin [3, 10]: 0.85 % Dosis/g | % Dosis/g spleen [3, 10]: 3.00 % Dosis/g | % Dosis/g stomach [3, 10]: 0.51 % Dosis/g | % Dosis/g tail [3, 10]: 4.69 % Dosis/g | % Dosis/g testes [3, 10]: 0.76 % Dosis/g | % Dosis/g thyroid [3, 10]: 0.68 % Dosis/g | % Dosis/g tumor [3, 10]: 5.31 % Dosis/g | % Dosis/g adrenals [3, 11]: 2.46 % Dosis/g | % Dosis/g blood [3, 11]: 0.33 % Dosis/g | % Dosis/g bone [3, 11]: 2.53 % Dosis/g | % Dosis/g brain [3, 11]: 0.06 % Dosis/g | % Dosis/g fat [3, 11]: 0.36 % Dosis/g | % Dosis/g heart [3, 11]: 0.27 % Dosis/g | % Dosis/g intestine [3, 11]: 0.23 % Dosis/g | % Dosis/g kidney [3, 11]: 105.40 % Dosis/g | % Dosis/g liver [3, 11]: 0.42 % Dosis/g | % Dosis/g lung [3, 11]: 0.49 % Dosis/g | % Dosis/g muscle [3, 11]: 0.21 % Dosis/g | % Dosis/g pankreas [3, 11]: 0.22 % Dosis/g | % Dosis/g prostate [3, 11]: 0.70 % Dosis/g | % Dosis/g skin [3, 11]: 0.76 % Dosis/g | % Dosis/g spleen [3, 11]: 2.48 % Dosis/g | % Dosis/g stomach [3, 11]: 0.26 % Dosis/g | % Dosis/g tail [3, 11]: 2.37 % Dosis/g | % Dosis/g testes [3, 11]: 0.50 % Dosis/g | % Dosis/g thyroid [3, 11]: 0.45 % Dosis/g | % Dosis/g tumor [3, 11]: 4.08 % Dosis/g | % Dosis/g adrenals [3, 12]: 0.51 % Dosis/g | % Dosis/g blood [3, 12]: 0.07 % Dosis/g | % Dosis/g bone [3, 12]: 1.52 % Dosis/g | % Dosis/g brain [3, 12]: 0.04 % Dosis/g | % Dosis/g fat [3, 12]: 0.17 % Dosis/g | % Dosis/g heart [3, 12]: 0.06 % Dosis/g | % Dosis/g intestine [3, 12]: 0.28 % Dosis/g | % Dosis/g kidney [3, 12]: 41.15 % Dosis/g | % Dosis/g liver [3, 12]: 0.24 % Dosis/g | % Dosis/g lung [3, 12]: 0.17 % Dosis/g | % Dosis/g muscle [3, 12]: 0.12 % Dosis/g | % Dosis/g pankreas [3, 12]: 0.07 % Dosis/g | % Dosis/g prostate [3, 12]: 0.66 % Dosis/g | % Dosis/g skin [3, 12]: 0.29 % Dosis/g | % Dosis/g spleen [3, 12]: 0.42 % Dosis/g | % Dosis/g stomach [3, 12]: 0.11 % Dosis/g | % Dosis/g tail [3, 12]: 1.73 % Dosis/g | % Dosis/g testes [3, 12]: 0.15 % Dosis/g | % Dosis/g thyroid [3, 12]: 0.18 % Dosis/g | % Dosis/g tumor [3, 12]: 3.13 % Dosis/g | % Dosis/g adrenals [3, 13]: 0.573 % Dosis/g | % Dosis/g blood [3, 13]: 0.08 % Dosis/g | % Dosis/g bone [3, 13]: 2.12 % Dosis/g | % Dosis/g brain [3, 13]: 0.03 % Dosis/g | % Dosis/g fat [3, 13]: 0.35 % Dosis/g | % Dosis/g heart [3, 13]: 0.08 % Dosis/g | % Dosis/g intestine [3, 13]: 1.03 % Dosis/g | % Dosis/g kidney [3, 13]: 46.96 % Dosis/g | % Dosis/g liver [3, 13]: 0.35 % Dosis/g | % Dosis/g lung [3, 13]: 0.16 % Dosis/g | % Dosis/g muscle [3, 13]: 0.06 % Dosis/g | % Dosis/g pankreas [3, 13]: 0.09 % Dosis/g | % Dosis/g prostate [3, 13]: 0.53 % Dosis/g | % Dosis/g skin [3, 13]: 0.24 % Dosis/g | % Dosis/g spleen [3, 13]: 0.41 % Dosis/g | % Dosis/g stomach [3, 13]: 0.20 % Dosis/g | % Dosis/g tail [3, 13]: 2.52 % Dosis/g | % Dosis/g testes [3, 13]: 0.20 % Dosis/g | % Dosis/g thyroid [3, 13]: 0.30 % Dosis/g | % Dosis/g tumor [3, 13]: 4.54 % Dosis/g | release of free fluoride upon incubation in human plasma ([4]; TLC at different time points): did not show increased release of free fluoride | compound still intact in human plasma ([4]; after two hours, TLC): 82% | metabolism by microsomes [5]: No metabolism | metabolism by microsomes [6]: No metabolism | metabolism by microsomes [7]: No metabolism | metabolism by hepatocytes [8]: No metabolism

O=C(O)[C@H](C[C@@H]([18F])C(=O)O)CP(=O)(O)O [Example F14, (2R,4S)-2-[^18F]-Fluoro-4-(phosphonomethyl)pentanedioic acid]
background activity in PET/CT image (LNCaP xenografts [2]): very low background activity | kidney and bladder uptake in PET/CT image (LNCaP xenografts [2]): strong kidney and bladder uptake | renal clearance (LNCaP xenografts [2]): rapid renal clearance | tumor-contrast in PET/CT image (LNCaP xenografts [2]): High tumor-contrast
